The numbers were not newly measured in patent US5811400A, “Peptide derivatives with δ opioid receptor antagonist or mixed μ agδ antagonist effects” (Astra AB, priority 1994, dated 1998), which cites them from elsewhere.

The subject of the data set is μ opioid receptors. The conditions noted are these: GPI assay.

In the case of `Oc1ccc2c3c1O[C@H]1c4[nH]c5ccccc5c4C[C@@]4(O)[C@@H](C2)N(CC2CC2)CC[C@]314` [naltrindole], the “μ antagonist properties (Ke)” value was 29 nM.
